Data: patent US7741350B1 (Cara Therapeutics, Inc., priority 2009, dated 2010)
Read-outs that look alike come from different tables or passages of the source.

Assays:
[1] = molecular target: human CB2 receptor (hCB2) (Homo sapiens, UniProt P34972); test: cAMP assay at human CB2 receptor; format: cell-based; details: hCB2R, maximum measurable range 30 μM
Procedure: (§1) TR-FRET was measured using a 330-380 nm excitation filter, 615 nm and 665 nm emission filters, dichroic minor 380 nm and Z=10 mm. cAMP concentrations in each well were back-calculated from a cAMP standard curve run concurrently during each assay. Each plate contained 16 wells of forskolin stimulated cells and 16 wells of forskolin plus 1 μM CP55,940-treated cells. Concentrations of cAMP were expressed as a percent of the difference of these two groups of wells.

[2] = molecular target: human CB1 receptor (hCB1) (Homo sapiens, UniProt P21554); test: cAMP assay at human CB1 receptor; format: cell-based; details: hCB1R; maximum measurable range 30 μM; read-out: EC50 (Potency at Human CB1 determined by cAMP Assay)
Chain of human CB1 receptor (hCB1) (P21554 whole entry): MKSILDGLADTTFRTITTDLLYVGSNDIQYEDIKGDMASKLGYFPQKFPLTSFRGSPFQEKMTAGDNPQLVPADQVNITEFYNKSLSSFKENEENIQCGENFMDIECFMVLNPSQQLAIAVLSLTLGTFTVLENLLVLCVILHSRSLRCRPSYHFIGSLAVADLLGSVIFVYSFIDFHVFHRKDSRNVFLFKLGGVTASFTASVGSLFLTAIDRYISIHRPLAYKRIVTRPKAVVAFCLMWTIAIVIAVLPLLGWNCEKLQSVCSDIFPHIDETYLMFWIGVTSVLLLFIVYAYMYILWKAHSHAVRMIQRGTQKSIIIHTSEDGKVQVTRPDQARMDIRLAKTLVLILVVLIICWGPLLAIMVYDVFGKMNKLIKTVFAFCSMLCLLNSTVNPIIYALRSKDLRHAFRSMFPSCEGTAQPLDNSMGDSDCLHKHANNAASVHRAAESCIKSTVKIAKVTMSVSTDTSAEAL
Procedure: The ability of each of the compounds to act as agonists or inverse agonists at human CB2 and CB1 receptors (hCB2, hCB1, respectively) and at the rat CB2 receptor (rCB2) was determined by measuring changes in intracellular cyclic AMP (cAMP) levels as described in U.S. Pat. No. 7,517,874.
as §1, with “wells. Concentration-response data including EC50 (the concentration of compound producing 50% of the maximal response) and intrinsic activity (the percent maximal activation compared to full activation by CP55, 940) were determined using a four-parameter non-linear regression algorithm (CambridgeSoft Bioassay).” for “wells.”

male Sprague-Dawley rats = test: Anti-hyperalgesia in the Complete Freund's Adjuvant (CFA) model of inflammatory pain; format: in vivo; details: PO dose 3 mg/kg; 1 hr after dosing; thermal hyperalgesia; rat; read-out: % MPE (1 hr), paw withdrawal latency after CFA injection
Procedure: The anti-hyperalgesic effects of test compounds in the Complete Freund's Adjuvant (CFA) model of inflammatory pain were determined essentially as described in U.S. Pat. No. 7,517,874 using male Sprague-Dawley rats (Hsd: Sprague-Dawley®SD®, Harlan, Indianapolis, Ind.) weighing 200-300 grams.
Test compounds were prepared in a Cremaphor vehicle mixture of 1:1:18 CremophorEL:ethanol:water. Cremophor was obtained from Sigma Chemical (St. Louis, Mo.). The vehicle mixture or vehicle mixture plus test compound were each administered orally.
Assessment of thermal hyperalgesia: Baseline and post-treatment paw withdrawal latencies to a noxious thermal stimulus were measured using a plantar test apparatus (Ugo Basile; obtained from Stoelting, Wood Dale, Ill.). This apparatus generates an infrared heat source that is linearly increasing in intensity. To avoid tissue damage, the power to the heat source was cut off after 20 seconds.
Paw withdrawal latency is defined as the time required for the rat to flick its paw away from the thermal stimulus. Ibuprofen (100 mg/kg, p.o.) was used as the positive control. Paw withdrawal latencies (in seconds) were measured before (naïve paw latency, L1) and 24 hr following (CFA-inflamed paw latency, L2) a single intraplantar injection of 0.1 mL CFA (Sigma-Aldrich, cat F5881, Mycobacterium tuberculosis 1 mg/ml).
Test compounds were administered orally 23 hours following CFA injection; i.e., 1 hour prior to thermal assessment (compound treated CFA-inflamed paw latency, L3). The mean paw withdrawal latency and standard error of the mean (SEM) was determined for the injured paws for each treatment group.
Data were expressed as percent maximum […] effect (% MPE) defined as the percentage of restoration of latency of test compound-treated CFA inflamed paw as compared to the naïve paw latency.

[3] = read-out: EC50 (Potency at Human CB2 determined by cAMP Assay)
[4] = EC50 (Potency at Human CB2 determined by cAMP Assay)

Chain of human CB2 receptor (hCB2) (P34972 whole entry): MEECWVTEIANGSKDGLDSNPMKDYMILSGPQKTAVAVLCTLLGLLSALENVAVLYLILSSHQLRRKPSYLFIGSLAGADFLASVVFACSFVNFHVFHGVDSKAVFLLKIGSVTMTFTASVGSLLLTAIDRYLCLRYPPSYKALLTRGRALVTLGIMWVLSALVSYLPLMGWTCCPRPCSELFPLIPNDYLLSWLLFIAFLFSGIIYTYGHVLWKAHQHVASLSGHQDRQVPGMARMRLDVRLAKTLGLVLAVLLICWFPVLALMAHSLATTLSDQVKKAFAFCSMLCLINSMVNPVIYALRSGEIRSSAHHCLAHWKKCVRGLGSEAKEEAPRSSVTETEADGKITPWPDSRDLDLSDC

In the case of `CC(C)(C)[C@H](NC(=O)n1nc(-c2ccc(F)c(F)c2)c2c1CCOC2)C(N)=O` [Compound 99, (S)—N-(1-amino-3,3-dimethyl-1-oxobutan-2-yl)-3-(3,4-difluorophenyl)-6,7-dihydropyrano[4,3-c]pyrazole-1(4H)-carboxamide], the EC50 [1, 3] is reported as > 1000 nM, the EC50 [2] is reported as < 1000 nM and the inhibition in vivo at 3 mg/kg (male Sprague-Dawley rats) is reported as 68%.

With `CN1CCc2c(-c3cc(F)c(F)cc3F)nn(C(=O)N[C@H](C(=O)NCCO)C(C)(C)C)c2C1` [Compound 89, (S)—N-(1-(2-hydroxyethylamino)-3,3-dimethyl-1-oxobutan-2-yl)-6-methyl-3-(2,4,5-trifluorophenyl)-4,5,6,7-tetrahydro-1H-pyrazolo[3,4-c]pyridine-1-carboxamide] the EC50 [1, 4] was < 1000 nM, the EC50 [2] was < 1000 nM and the inhibition in vivo at 3 mg/kg (male Sprague-Dawley rats) was 52%.

`CC(C)(C)[C@H](NC(=O)n1nc(-c2ccc(F)c(F)c2)c2c1COCC2)C(=O)NCCO` [Compound 95, (S)-3-(3,4-difluorophenyl)-N-(1-(2-hydroxyethylamino)-3,3-dimethyl-1-oxobutan-2-yl)-4,5-dihydropyrano[3,4-c]pyrazole-1(7H)-carboxamide] was tested, and the EC50 [1, 4] was < 1000 nM, the EC50 [2] was < 1000 nM and the inhibition in vivo at 3 mg/kg (male Sprague-Dawley rats) was 41%.

In the case of `CN1CCCc2c1c(-c1cc(Cl)ccc1F)nn2C(=O)N[C@H](C(=O)NCCO)C(C)(C)C` [Compound 94, (S)-3-(5-chloro-2-fluorophenyl)-N-(1-(2-hydroxyethylamino)-3,3-dimethyl-1-oxobutan-2-yl)-4-methyl-4,5,6,7-tetrahydro-1H-pyrazolo[4,3-b]pyridine-1-carboxamide], the EC50 [1, 4] is reported as < 1000 nM, the EC50 [2] is reported as < 1000 nM and the inhibition in vivo at 3 mg/kg (male Sprague-Dawley rats) is reported as 27%.

With `CC(C)(C)[C@H](NC(=O)n1nc(-c2cc(F)ccc2F)c2c1CCOC2)C(=O)NCCO` [Compound 87, (S)-3-(2,5-difluorophenyl)-N-(1-(2-hydroxyethylamino)-3,3-dimethyl-1-oxobutan-2-yl)-6,7-dihydropyrano[4,3-c]pyrazole-1(4H)-carboxamide] the EC50 [1, 4] was < 1000 nM, the EC50 [2] was < 1000 nM and the inhibition in vivo at 3 mg/kg (male Sprague-Dawley rats) was 50%.

For `CC(C)(C)[C@H](NC(=O)n1nc(-c2cc(Cl)ccc2F)c2c1CCOC2)C(=O)NCCO` [Compound 86, (S)-3-(5-chloro-2-fluorophenyl)-N-(1-(2-hydroxyethylamino)-3,3-dimethyl-1-oxobutan-2-yl)-6,7-dihydropyrano[4,3-c]pyrazole-1(4H)-carboxamide], the EC50 [1, 4] was < 1000 nM, the EC50 [2] was < 1000 nM and the inhibition in vivo at 3 mg/kg (male Sprague-Dawley rats) was 27%.

`CC(C)(C)[C@H](NC(=O)n1nc(-c2ccc(Cl)cc2F)c2c1CCOC2)C(=O)NCCO` [Compound 88, (S)-3-(4-chloro-2-fluorophenyl)-N-(1-(2-hydroxyethylamino)-3,3-dimethyl-1-oxobutan-2-yl)-6,7-dihydropyrano[4,3-c]pyrazole-1(4H)-carboxamide] was tested, and the EC50 [1, 3] was < 1000 nM, the EC50 [2] was < 1000 nM and the inhibition in vivo at 3 mg/kg (male Sprague-Dawley rats) was 47%.

`CN1CCCc2c1c(-c1ccc(F)c(F)c1)nn2C(=O)N[C@H](C(=O)NCCO)C(C)(C)C` [Compound 91, (S)-3-(3,4-difluorophenyl)-N-(1-(2-hydroxyethylamino)-3,3-dimethyl-1-oxobutan-2-yl)-4-methyl-4,5,6,7-tetrahydro-1H-pyrazolo[4,3-b]pyridine-1-carboxamide] was tested, and the EC50 [1, 3] was < 1000 nM, the EC50 [2] was < 1000 nM and the inhibition in vivo at 3 mg/kg (male Sprague-Dawley rats) was 47%.

With `CN1CCc2c(-c3cc(F)ccc3F)nn(C(=O)N[C@H](C(=O)NCCO)C(C)(C)C)c2C1` [Compound 93, (S)-3-(2,5-difluorophenyl)-N-(1-(2-hydroxyethylamino)-3,3-dimethyl-1-oxobutan-2-yl)-6-methyl-4,5,6,7-tetrahydro-1H-pyrazolo[3,4-c]pyridine-1-carboxamide] the EC50 [1, 4] was < 1000 nM, the EC50 [2] was < 1000 nM and the inhibition in vivo at 3 mg/kg (male Sprague-Dawley rats) was 28%.

In the case of `CNC(=O)[C@@H](NC(=O)n1nc(-c2ccc(F)c(F)c2)c2c1CCCN2CCO)C(C)(C)C` [Compound 101, (S)-3-(3,4-difluorophenyl)-N-(3,3-dimethyl-1-(methylamino)-1-oxobutan-2-yl)-4-(2-hydroxyethyl)-4,5,6,7-tetrahydro-1H-pyrazolo[4,3-b]pyridine-1-carboxamide], the EC50 [1, 3] is reported as < 1000 nM, the EC50 [2] is reported as < 1000 nM and the inhibition in vivo at 3 mg/kg (male Sprague-Dawley rats) is reported as 28%.

In the case of `CN1CCc2c(-c3ccc(F)c(F)c3)nn(C(=O)N[C@H](C(=O)NCCO)C(C)(C)C)c2C1` [Compound 90, (S)-3-(3,4-difluorophenyl)-N-(1-(2-hydroxyethylamino)-3,3-dimethyl-1-oxobutan-2-yl)-6-methyl-4,5,6,7-tetrahydro-1H-pyrazolo[3,4-c]pyridine-1-carboxamide], the EC50 [1, 3] is reported as > 1000 nM, the EC50 [2] is reported as < 1000 nM and the inhibition in vivo at 3 mg/kg (male Sprague-Dawley rats) is reported as 25%.

`CN1CCc2c(c(-c3cc(F)c(F)cc3F)nn2C(=O)N[C@H](C(=O)O)C(C)(C)C)C1` [Compound 71, (S)-3,3-dimethyl-2-(5-methyl-3-(2,4,5-trifluorophenyl)-4,5,6,7-tetrahydro-1H-pyrazolo[4,3-c]pyridine-1-carboxamido)butanoic acid] was tested, and the EC50 [1, 3] was > 30000 nM and the EC50 [2] was > 30000 nM.

In the case of `CNC(=O)[C@@H](NC(=O)n1nc(-c2cc(F)c(F)cc2F)c2c1CN(C)CC2)C(C)(C)C` [Compound 38, (S)—N-(3,3-dimethyl-1-(methylamino)-1-oxobutan-2-yl)-6-methyl-3-(2,4,5-trifluorophenyl)-4,5,6,7-tetrahydro-1H-pyrazolo[3,4-c]pyridine-1-carboxamide], the EC50 [1, 4] is reported as < 1000 nM and the EC50 [2] is reported as < 1000 nM.

`CNC(=O)[C@@H](NC(=O)n1nc(-c2ccc(F)cc2)c2c1CCNC2)C(C)(C)C` [Compound 53, (S)—N-(3,3-dimethyl-1-(methylamino)-1-oxobutan-2-yl)-3-(4-fluorophenyl)-4,5,6,7-tetrahydro-1H-pyrazolo[4,3-c]pyridine-1-carboxamide] was tested, and the EC50 [1, 4] was < 1000 nM and the EC50 [2] was < 1000 nM.

`CC(C)(C)[C@@H](CO)NC(=O)n1nc(-c2ccc(F)c(F)c2)c2c1CCCC2` [Compound 51, (S)-3-(3,4-difluorophenyl)-N-(1-hydroxy-3,3-dimethylbutan-2-yl)-4,5,6,7-tetrahydro-1H-indazole-1-carboxamide] was tested, and the EC50 [1, 4] was < 1000 nM and the EC50 [2] was < 1000 nM.

With `CN1CCc2c(c(-c3cc(F)c(F)cc3F)nn2C(=O)N[C@H](C(=O)N2CCC[C@H]2C(N)=O)C(C)(C)C)C1` [Compound 74, N—((S)-1-((S)-2-carbamoylpyrrolidin-1-yl)-3,3-dimethyl-1-oxobutan-2-yl)-5-methyl-3-(2,4,5-trifluorophenyl)-4,5,6,7-tetrahydro-1H-pyrazolo[4,3-c]pyridine-1-carboxamide] the EC50 [1, 3] was > 1000 nM and the EC50 [2] was < 1000 nM.

With `CN1CCc2c(c(-c3cc(F)c(F)cc3F)nn2C(=O)N[C@H](C(=O)NCCO)C(C)(C)C)C1` [Compound 40, (S)—N-(1-(2-hydroxyethylamino)-3,3-dimethyl-1-oxobutan-2-yl)-5-methyl-3-(2,4,5-trifluorophenyl)-4,5,6,7-tetrahydro-1H-pyrazolo[4,3-c]pyridine-1-carboxamide] the EC50 [1, 4] was < 1000 nM and the EC50 [2] was < 1000 nM.

In the case of `CN1CCN(C(=O)[C@@H](NC(=O)n2nc(-c3cc(F)c(F)cc3F)c3c2CCOC3)C(C)(C)C)CC1` [Compound 32, (S)—N-(3,3-dimethyl-1-(4-methylpiperazin-1-yl)-1-oxobutan-2-yl)-3-(2,4,5-trifluorophenyl)-6,7-dihydropyrano[4,3-c]pyrazole-1(4H)-carboxamide], the EC50 [1, 4] is reported as < 1000 nM and the EC50 [2] is reported as < 1000 nM.
